Results reported in paper PMC7933318, “Engineering a lipoxygenase from cyclocybe aegerita towards long chain polyunsaturated fatty acids” (AMB Express, 2021).

Target: T1, CaeLox1 (Cyclocybe aegerita, UniProt A0A8A1QR86)
T1 construct: gene LOX1; codon-optimized cDNA in pET28a, E. coli BL21-Gold (DE3), Ni-NTA purified
T1 sequence (A0A8A1QR86 1-656): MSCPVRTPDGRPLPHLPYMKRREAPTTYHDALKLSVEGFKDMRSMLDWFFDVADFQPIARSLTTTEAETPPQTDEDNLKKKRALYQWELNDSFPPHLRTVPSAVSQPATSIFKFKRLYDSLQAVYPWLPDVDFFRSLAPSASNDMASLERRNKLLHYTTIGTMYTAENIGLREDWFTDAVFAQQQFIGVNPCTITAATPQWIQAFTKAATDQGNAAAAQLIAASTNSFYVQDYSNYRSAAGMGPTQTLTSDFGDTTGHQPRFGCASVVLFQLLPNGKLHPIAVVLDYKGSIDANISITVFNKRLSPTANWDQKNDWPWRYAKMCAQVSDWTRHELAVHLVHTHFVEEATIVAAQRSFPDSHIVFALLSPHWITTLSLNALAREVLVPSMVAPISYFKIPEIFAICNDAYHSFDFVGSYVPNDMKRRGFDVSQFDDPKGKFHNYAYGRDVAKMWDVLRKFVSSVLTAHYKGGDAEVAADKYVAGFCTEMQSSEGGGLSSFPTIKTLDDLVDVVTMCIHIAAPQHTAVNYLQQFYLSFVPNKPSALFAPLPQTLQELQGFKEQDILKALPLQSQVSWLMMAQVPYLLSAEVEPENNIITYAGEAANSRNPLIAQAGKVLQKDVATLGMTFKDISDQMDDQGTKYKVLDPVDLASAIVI
Experiment: conjugated diene formation at […] nm, specific activity
Assay type: biochemical
Settings: 1.25 mM PUFA, 50 mM phosphate pH 7.5, 25 °C

For `CCCCC/C=C\C/C=C\CCCCCCCC(=O)O` [LA, linoleic acid], the specific activity was “we investigated the specific activities of PUFAs occurring (linoleic acid, linolenic acid)”.
